One experiment has as its target EGFR (human) (UniProt P00533). Conditions: a431.
For experiment [1], the target named is EGFR (human), P00533 [Antiproliferation of H195 Cells Having Overexpressed EGFR T790 Mutant Kinase].
Experiment [2] has as its target EGFR (human), P00533 [Assessment of EGFR T790 Mutant Kinase Activity].

Experimental findings from the Kinase Knowledgebase extract (Sharma et al. 2016) are described below.

A word on the IC50: it is the point on the concentration scale where inhibition reaches its midpoint.

Sequence of EGFR (human), P00533 [Antiproliferation of H195 Cells Having Overexpressed EGFR T790 Mutant Kinase] (P00533 whole entry, looked up, change not shown): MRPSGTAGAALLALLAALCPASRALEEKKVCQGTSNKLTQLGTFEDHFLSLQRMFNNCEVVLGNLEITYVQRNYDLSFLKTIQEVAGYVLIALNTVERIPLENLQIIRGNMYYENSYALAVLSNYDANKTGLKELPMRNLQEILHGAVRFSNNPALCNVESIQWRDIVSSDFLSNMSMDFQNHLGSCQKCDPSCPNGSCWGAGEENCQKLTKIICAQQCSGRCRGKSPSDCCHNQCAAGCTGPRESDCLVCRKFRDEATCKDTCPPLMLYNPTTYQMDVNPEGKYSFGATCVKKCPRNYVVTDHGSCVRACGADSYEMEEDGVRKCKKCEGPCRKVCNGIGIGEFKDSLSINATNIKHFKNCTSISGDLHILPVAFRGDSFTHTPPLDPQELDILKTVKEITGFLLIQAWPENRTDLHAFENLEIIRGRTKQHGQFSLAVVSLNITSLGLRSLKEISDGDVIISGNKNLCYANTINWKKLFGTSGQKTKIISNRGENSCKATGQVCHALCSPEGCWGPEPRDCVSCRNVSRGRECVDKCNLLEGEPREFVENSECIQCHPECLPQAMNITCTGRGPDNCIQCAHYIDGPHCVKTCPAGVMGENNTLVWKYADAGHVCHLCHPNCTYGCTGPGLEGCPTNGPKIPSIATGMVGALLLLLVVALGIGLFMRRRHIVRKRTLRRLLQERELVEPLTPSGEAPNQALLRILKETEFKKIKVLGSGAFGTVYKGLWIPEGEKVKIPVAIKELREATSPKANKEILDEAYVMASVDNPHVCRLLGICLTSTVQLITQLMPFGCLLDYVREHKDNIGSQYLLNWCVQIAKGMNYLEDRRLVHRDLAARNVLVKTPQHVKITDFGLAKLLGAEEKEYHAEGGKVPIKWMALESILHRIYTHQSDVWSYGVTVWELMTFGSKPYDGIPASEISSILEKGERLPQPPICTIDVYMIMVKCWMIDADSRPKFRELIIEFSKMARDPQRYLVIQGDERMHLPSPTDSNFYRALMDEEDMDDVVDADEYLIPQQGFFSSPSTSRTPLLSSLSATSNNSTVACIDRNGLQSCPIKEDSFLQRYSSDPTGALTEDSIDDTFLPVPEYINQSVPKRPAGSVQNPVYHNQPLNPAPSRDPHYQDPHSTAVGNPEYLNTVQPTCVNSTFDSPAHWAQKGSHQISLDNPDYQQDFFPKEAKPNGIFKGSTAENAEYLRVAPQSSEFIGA
Sequence of EGFR (human) (P00533 whole entry, looked up): as the sequence (P00533 whole entry, looked up, change not shown) above
Sequence of EGFR (human), P00533 [Assessment of EGFR T790 Mutant Kinase Activity] (P00533 whole entry, looked up, change not shown): as above

`C=CC(=O)N1CCC(Oc2cc3c(Nc4cccc(C)c4)ncnc3cc2OC)CC1`: the half-maximal inhibitory concentration (IC50) is 1 nM on EGFR (human) and 236 nM in experiment [1].

As for `C=CC(=O)N1CC[C@H](Oc2cc3c(Nc4ccc(Br)c(Cl)c4F)ncnc3cc2OC)C1`, the figures for the IC50 (against EGFR (human); in experiment [1]) were 5 nM and 55 nM, respectively.

As to `C=CC(=O)N1CCC(Oc2cc3c(Nc4ccc(F)c(Cl)c4)ncnc3cc2OC)CC1`, the IC50 at EGFR (human) was 17 nM; in experiment [1], 16 nM.

`C=CC(=O)N1CC(Oc2cc3c(N[C@H](C)c4ccccc4)ncnc3cc2OC)C1`: the figures for the IC50 (at EGFR (human); in experiment [1]) were 7 nM and 156 nM, respectively.

On to `C=CC(=O)N1CC[C@H](Oc2cc3c(N[C@H](C)c4ccccc4)ncnc3cc2OC)C1`, for which the IC50 against EGFR (human) was found to be 8 nM; in experiment [1], 167 nM.

As for `C=CC(=O)N1CCC(Oc2cc3c(Nc4cccc(C=C)c4)ncnc3cc2OC)CC1`, the IC50 is 1.9 nM at EGFR (human) and 27 nM in experiment [1].

`COc1cc2ncnc(Nc3ccc(F)c(Cl)c3F)c2cc1OC1CN(C(=O)/C=C\Cl)C1`: the figures for the IC50 (against EGFR (human); in experiment [1]) were 2.4 nM and 19 nM, respectively.

`C=CC(=O)N1CCC(Oc2cc3c(Nc4ccc(F)c(Cl)c4F)ncnc3cc2OC)CC1` gave an IC50 in experiment [2] of 24 nM.

Regarding `C=CC(=O)N1CC[C@H](Oc2cc3c(Nc4ccc(F)c(Cl)c4F)ncnc3cc2OC)C[C@H]1C(=O)NCCS(C)(=O)=O`, the IC50 on EGFR (human) amounted to 2.2 nM; in experiment [1] it was 50.4 nM.

Regarding `C=CC(=O)N1CC(Oc2cc3c(Nc4cccc(Cl)c4F)ncnc3cc2OC)C1`, the IC50 against EGFR (human) is 1.6 nM; in experiment [1], 9 nM.

For the molecule `C=CC(=O)N1CCC(Oc2cc3c(Nc4cccc(Br)c4)ncnc3cc2OC)CC1`, the IC50 at EGFR (human) came out at 1 nM; in experiment [1], 96 nM.

In the case of `C=CC(=O)N1CC[C@H](Oc2cc3c(Nc4ccc(F)c(Cl)c4F)ncnc3cc2OC)C[C@H]1C(N)=O`, the results for the IC50 (on EGFR (human); in experiment [1]) were 3 nM and 5.2 nM, respectively.

Turning to `C=CC(=O)N1CC[C@@H](Oc2cc3c(Nc4ccc(F)c(Cl)c4F)ncnc3cc2OC)C[C@@H]1C(=O)NC`, the results for the IC50 (on EGFR (human); in experiment [1]) were 2.9 nM and 2.6 nM, respectively.

As to `C=CC(=O)N1CC[C@H](Oc2ccc3ncnc(Nc4ccc(F)c(Cl)c4F)c3c2)C1`, the values for the IC50 (against EGFR (human); in experiment [1]) were 5 nM and 413 nM, respectively.

`C=CC(=O)N1CC[C@@H](Oc2cc3c(Nc4ccc(F)c(Cl)c4F)ncnc3cc2OC)C[C@@H]1C(=O)OC`: the IC50 against EGFR (human) amounted to 0.7 nM; in experiment [1], 5.4 nM.

With `C=CC(=O)N1CC(Oc2cc3c(Nc4cccc(Cl)c4)ncnc3cc2OC)C1`, the results for the IC50 (on EGFR (human); in experiment [1]) were 1.6 nM and 17.7 nM, respectively.

In the case of `C=CC(=O)N1CC[C@H](Oc2cc3c(Nc4ccc(F)c(Cl)c4F)ncnc3cc2OC)C[C@H]1C(=O)NCCOC`, the IC50 on EGFR (human) came out at 3.4 nM; in experiment [1] it was 11 nM.

In the case of `C=C(CN(C)C)C(=O)N1CC(Oc2cc3c(Nc4ccc(F)c(Cl)c4F)ncnc3cc2OC)C1`, the figures for the IC50 (on EGFR (human); in experiment [1]) were 41 nM and 11 nM, respectively.

In the case of `C=CC(=O)N1CCC(Oc2cc3c(Nc4ccc(F)c(Cl)c4F)ncnc3cc2OCCOC)CC1`, the IC50 at EGFR (human) was 4 nM; in experiment [1], 47 nM.

As to `C=CC(=O)N1CCC(Oc2cc3c(Nc4ccc(Br)c(C)c4)ncnc3cc2OC)CC1`, the half-inhibitory concentration (IC50) on EGFR (human) was 6 nM; in experiment [1], 48 nM.

`C=C(CN(C)C)C(=O)N1CCC(Oc2cc3c(Nc4ccc(F)c(Cl)c4F)ncnc3cc2OC)CC1` displayed an IC50 against EGFR (human) of 2.7 nM.

`C=C(C)C(=O)N1CC(Oc2cc3c(Nc4ccc(F)c(Cl)c4F)ncnc3cc2OC)C1` registered an IC50 against EGFR (human) of 29 nM.

Turning to `C=CC(=O)N1CC[C@@H](Oc2cc3c(Nc4ccc(Cl)c(Cl)c4F)ncnc3cc2OC)C[C@@H]1C(N)=O`, the IC50 came out at 0.8 nM at EGFR (human) and 1.1 nM in experiment [1].

On EGFR (human), `COc1cc2ncnc(Nc3ccc(F)c(Cl)c3F)c2cc1OC1CN(C(=O)/C=C/CN(C)C)C1` came in with an IC50 of 36 nM.

In turn, `COc1cc2ncnc(Nc3ccc(Cl)c(Cl)c3F)c2cc1OC1CCN(C(=O)/C=C/Cl)CC1` registered an IC50 against EGFR (human) of 39 nM. This IC50 and that of the molecule before are within 1.5-fold of each other.

Molecule `C=CC(=O)N1CCC(Oc2cc3c(Nc4ccc(Cl)cc4)ncnc3cc2OC)CC1` showed an IC50 against EGFR (human) of 4.6 nM.

For `C=CC(=O)N1CC[C@@H](Oc2cc3c(Nc4ccc(Br)cc4F)ncnc3cc2OC)C[C@@H]1C(N)=O`, at EGFR (human), the half-maximal inhibitory concentration (IC50) turned out to be 1.1 nM. This IC50 is about 4.2-fold lower than that of the molecule before.

`CC#CC(=O)N1CC[C@H](Oc2cc3c(Nc4ccc(F)c(Cl)c4F)ncnc3cc2OC)C1` returned an IC50 on EGFR (human) of 37 nM.

For the molecule `C=CC(=O)N1CCC(Oc2cc3c(Nc4ccc5c(c4)CCC5)ncnc3cc2OC)CC1`, on EGFR (human), the IC50 worked out at 29 nM.

Consider `C=CC(=O)N1CCC(Oc2cc3c(Nc4ccccc4Cl)ncnc3cc2OC)CC1`, for which, on EGFR (human), the IC50 was 65 nM. Against the preceding molecule, the IC50 is about 2.2-fold higher.
